# What was measured:
# [1] = test system: horny layer; experiment: Skin conductance (water content of horny layer) after two-week coating on cheeks; format: in vivo, women; design: key: conductance meter reading; ≤5 = severe roughness, ≥20 = no roughness; settings: Invention Product 1: vaseline and compound 3:1 by weight; two weeks; 20° C., 40% humidity; 5 and smaller = severe roughness, 20 or greater = no substantial roughness
# From the text: (§1) Compounds Ia1 -Ia18 prepared respectively in Referential Examples 1, 2 and 3 and following the procedures of these referential examples, compounds Ib1 -Ib5 prepared respectively in Referential Example 4 and following the procedure of the referential example, compounds Id1 -Id5 prepared respectively in Referential Example 5 and following the procedure of the referential example, compounds Ie1 -Ie4 prepared respectively in Referential Examples 6-9, and conventional compounds Ic1 -Ic13, Ie5 -Ie14 and II1 -II12 were used separately. Mixtures (Invention Products 1), each of which had been formulated by mixing vaseline and the compound (I or II) at a weight ratio of 3:1, and vaseline (Comparative Product 1) were evaluated in skin conductance and skin roughness by the following methods.
# (§2) Chosen as volunteers in winter were 10 women of 20-50 years of old who had skin roughness on their both cheeks. Different external skin care preparations were coated separately on the left and right cheeks of each volunteer for two weeks. On the following day of the completion of the two-week coating test, tests were conducted with respect to the following properties.
# After washing the face with warm water of 37° C., each volunteer was allowed to rest for 20 minutes in a room which was air-conditioned at 20° C. and 40% humidity. The water content of their horny layer was measured by a skin conductance meter (manufactured by IBS Company). A smaller conductance value indicates greater skin roughness. Conductance values of 5 and smaller indicate severe skin roughness. On the contrary, no substantial skin roughness is observed where this value is 20 or greater.
# [2] = test system: skin roughness; experiment: Score of skin roughness, visual ranking after two-week coating on cheeks; format: in vivo, women; settings: average, 4 = severe
# From the text: as §1, §2
# Skin roughness was observed visually and ranked in accordance with the following standard. Each score was indicated by an average value.
# Score Ranking of skin roughness
# 0 No skin roughness was observed.
# 1 Slight skin roughness was observed.
# 2 Skin roughness was observed.
# 3 Rather severe skin roughness was observed.
# 4 Severe skin roughness was observed.
# Using separately the compounds used in Example 1, external skin care preparations (emulsified cosmetic preparations) of their corresponding compositions shown below in Table 2 were formulated. Their effects for the improvement of skin roughness were evaluated in the same manner as in Example 1.
# [3] = Invention product 2: emulsified cosmetic, compound 1.0 wt. %, glyceryl ether 2.0 wt. %, 0 = none
# [4] = Invention product 3: emulsified cosmetic, compound 1.0 wt. %, arginine monocetylphosphate 2.0 wt. %, 0 = none
# [5] = Invention product 4: emulsified cosmetic, compound 1.0 wt. %, polyoxyethylene (20) sorbitan stearate 1.0 and sorbitan monostearate 1.0 wt. %, 0 = none
# [6] = Invention Product 1: vaseline and compound 3:1 by weight, two weeks, 0 = no roughness
Compound,Skin conductance [1],"Score of skin roughness [2, 3]","Score of skin roughness [2, 4]","Score of skin roughness [2, 5]","Score of skin roughness [2, 6]"
"CCCCCCCCCCCCCCCCOCC(O)CN(CCO[C@@H]1O[C@H](CO)[C@@H](O[C@@H]2O[C@H](CO)[C@H](O)[C@H](O)[C@H]2O)[C@H](O)[C@H]1O)C(=O)CCCCCCCCCCCCCCC (stereo partly drawn) [Compound Ie2, N-(3-hexadecyloxy-2-hydroxypropyl)-N-[2-O-(4-β-D-galactopyranosyl-β-D-glucopyranosyl)ethyl]hexadecanamide]",29,0.4,0.5,0.8,
CCCCCCCCCCCCCCCCOCC(O)CN(C(=O)CCCCCCCCCCCCCCC)C(CC(=O)O)C(=O)O (centres unmarked) [Compound Ic10],15,0.6,0.8,1.1,
"CCCCCCCCCCCCCCCCCC(=O)N(CCO)CC(O)CCCCCCCCCCCCCC (centres unmarked) [Compound Id1, N-(2-hydroxyethyl)-N-2-hydroxyhexa-decyloctadecanamide]",21,0.2,0.4,0.7,1.0
"CCCCCCCCCCCCCCCCOCC(O)CN(CCOC1O[C@H](CO)[C@@H](O)[C@H](O)[C@H]1O)C(=O)CCCCCCCCCCCCCCC (some centres unmarked) [Compound Ie1, N-(3-hexadecyloxy-2-hydroxypropyl)-N-(2-O-glucopyranosyl)ethylhexadecanamide]",25,0.4,0.6,0.9,
"CCCCCCCCCCCCCCCCOCC(O)CN(CCO[C@]1(C(=O)O)C[C@H](O)[C@@H](NC(C)=O)[C@H]([C@H](O)[C@H](O)CO)O1)C(=O)CCCCCCCCCCCCCCC (stereo partly drawn) [Compound Ie4, N-(3-hexadecyloxy-2-hydroxypropyl)-N-[2-O-(5-acetamido-3,5-dideoxy-α-D-glycero-β-D-galacto-2-nonuropyranosyl)ethyl]hexadecanamide]",33,0.2,0.2,0.4,0.5
CCCCCCCCCCCCCCCCCCOCC(O)CN(CCO)CC(O)COCCCCCCCCCC (centres unmarked) [Compound II3],11,0.5,0.8,1.1,
CCCCCCCCCCCCCCCCCCOCC(O)CN(CCCO)C(=O)CCCCCCCCCCCCCCCCC (centres unmarked) [Compound Ia6],23,0.1,0.3,0.7,
CCCCCCCCCCCCCCOCC(O)CN(C(=O)CCCCCCCCC)C(CO)(CO)CO (centres unmarked) [Compound Ia17],20,0.2,0.4,0.7,
CCCCCCCC/C=C\CCCCCCCC(=O)N(CCO)CC(O)CCCCCCCCCCCCCCCC (centres unmarked) [Compound Id5],25,0.1,0.3,0.6,
CCCCCCCCCCCCCCCCOCC(O)CN(C(=O)CCCCCCCCCCCCCCC)C(CCC(=O)O)C(=O)O (centres unmarked) [Compound Ic11],13,0.8,1.0,1.3,
"CCCCCCCCCCCCCCCCOCC(O)CN(CC(O)CO)C(=O)CCCCCCCCCCCCCCC (centres unmarked) [Compound Ia10, N-(3-hexadecyloxy-2-hydroxypropyl)-N-2,3-dihydroxypropylhexadecanamide]",22,0.1,0.3,0.6,
CCCCCCCCCCC(O)CN(CCO)C(=O)CCCCCCCCC (centres unmarked) [Compound Id3],13,0.5,0.8,1.1,
CCCCCCCCCCCCCCCCOCC(O)CN(CCOP(=O)(O)OCCNC)C(=O)CCCCCCCCCCCCCCC (centres unmarked) [Compound Ie6],16,0.8,0.9,1.4,
CCCCCCCCCCCCCCCCOCC(O)CN(CC(=O)O)CC(O)COCCCCCCCCCCCCCCCC (centres unmarked) [Compound II9],17,0.1,0.3,0.9,
CCCCCCCCCCCCCCCCOCC(O)CN(CCO)CC(O)COCCCCCCCCCCCCCCCC (centres unmarked) [Compound II1],18,0.1,0.3,0.8,
CCCCCCCCCCCCCCCCOCC(CN(CCO)C(=O)CCCCCCCCCCCCCCC)OP(=O)([O-])OCC[N+](C)(C)C (centres unmarked) [Compound Ie13],11,0.9,1.1,1.5,
CCCCCCCCCCCCCCCCOCC(O)CN(CCO[C@@H]1O[C@H](CO)[C@@H](O)[C@H](O)[C@H]1NC(C)=O)C(=O)CCCCCCCCCCCCCCC (some centres unmarked) [Compound Ie3],31,0.3,0.4,0.7,
CCCCCCCCCCCCCCCCCCOCC(O)CN(C(=O)CCCCCCCCCCCCCCCCC)C(C)(C)CO (centres unmarked) [Compound Ia15],13,0.5,0.7,1.0,
CCCCCCCCCCCCCCCCCCOCC(O)CN(CCOCCO)C(=O)CCCCCCCCCCCCCCCCC (centres unmarked) [Compound Ib5],23,0.2,0.4,0.8,
CCCCCCCCCCOCC(O)CN(CCOP(=O)(O)OCCNCCc1ccccc1)C(=O)CCCCCCCCC (centres unmarked) [Compound Ie10],11,1.0,1.2,1.8,
CCCCCCCCCCCCCCCCCC(=O)N(CC(=O)O)CC(O)CCCCCCCCCCCCCCCC (centres unmarked) [Compound Ic3],11,1.0,1.3,1.6,
"CCCCCCCCCCCCCCCCOCC(O)CN(CCCCCCO)C(=O)CCCCCCCCCCCCCCC (centres unmarked) [Compound Ia2, N-(3-hexadecylocy-2-hydroxypropyl)-N-6-hydroxyhexylhexadecanamide]",18,0.3,0.5,1.0,
CCCCCCCCCCCCCCCCCC(=O)N(CCCO)CC(O)COCCCCCCCCCC (centres unmarked) [Compound Ia4],13,0.5,0.7,1.1,
CCCCCCCCCCCCCCCCOCC(O)CN(C(=O)CCCCCCCCCCCCCCC)C(Cc1c[nH]c2ccccc12)C(=O)O (centres unmarked) [Compound Ic13],10,1.1,1.4,1.7,
CCCCCCCCCCOCC(O)CN(CC(O)COCCCCCCCCCC)C(C)=O (centres unmarked) [Compound II10],9,0.8,1.1,1.2,
CCCCCCCCCCCCCCCCCC(=O)N(CC(O)CO)CC(O)COCCCCCCCCCC (centres unmarked) [Compound Ia11],19,0.3,0.5,0.8,
CCCCCCCCCCCCCCCCCC(=O)N(CCOP(=O)([O-])OCC[N+](CC)(CC)CC)CC(O)COCCCCCCCCCCCCCC (centres unmarked) [Compound Ie9],18,0.6,0.6,1.0,
CCCCCCCCCCCCCCCCCCOCC(O)CN(CCO)CC(O)COCCCCCCCCCCCCCCCCCC (centres unmarked) [Compound II4],21,0.1,0.3,0.7,
CCCCCCCCCCOCC(O)CN(CC(=O)O)CC(O)COCCCCCCCCCC (centres unmarked) [Compound II6],7,0.8,1.0,1.2,
CCCCCCCCCCOCC(O)CN(CCOCCO)C(=O)CCCCCCCCC (centres unmarked) [Compound Ib2],10,0.8,1.0,1.2,

# Reference: patent US4985547A, “External skin care preparation” (Kao Corporation, priority 1987, dated 1991)
